# Test results reported in PubChem BioAssay (NCI).
#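 Compound exposure: 48 hours, 5 concentrations, 96-well plates. TGI denotes the concentration required for complete inhibition of growth.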
# How the values were obtained:
# Experiment in all cases: DTP human tumour cell line panel, 48 h
# M14 melanoma = test system: M14 melanoma
# K-562 leukemia = test system: K-562 leukemia
# BT-549 breast = test system: BT-549 breast
# NCI-H522 lung = test system: NCI-H522 lung
# MCF7 breast = test system: MCF7 breast
# UO-31 renal = test system: UO-31 renal
# NCI-H226 lung = test system: NCI-H226 lung
# OVCAR-5 ovarian = test system: OVCAR-5 ovarian
# RXF 393 renal = test system: RXF 393 renal
# SF-268 CNS = test system: SF-268 CNS
# SK-MEL-5 melanoma = test system: SK-MEL-5 melanoma
# LOX IMVI melanoma = test system: LOX IMVI melanoma
# A549 NSCLC = test system: A549 NSCLC
# SNB-19 CNS = test system: SNB-19 CNS
# OVCAR-4 ovarian = test system: OVCAR-4 ovarian
# NCI-H460 lung = test system: NCI-H460 lung
# IGROV1 ovarian = test system: IGROV1 ovarian
# SF-539 CNS = test system: SF-539 CNS
# A498 renal = test system: A498 renal
# T-47D breast = test system: T-47D breast
# HOP-92 NSCLC = test system: HOP-92 NSCLC
# EKVX NSCLC = test system: EKVX NSCLC
# MDA-N = test system: MDA-N
# MDA-MB-435 = test system: MDA-MB-435
# SK-OV-3 ovarian = test system: SK-OV-3 ovarian
# 786-0 renal = test system: 786-0 renal
# TK-10 renal = test system: TK-10 renal
# ACHN renal = test system: ACHN renal
# HCT-116 colon = test system: HCT-116 colon
# COLO 205 colon = test system: COLO 205 colon
# OVCAR-3 ovarian = test system: OVCAR-3 ovarian
# SK-MEL-28 melanoma = test system: SK-MEL-28 melanoma
# OVCAR-8 ovarian = test system: OVCAR-8 ovarian
# SNB-75 CNS = test system: SNB-75 CNS
# MALME-3M melanoma = test system: MALME-3M melanoma
# HCC-2998 colon = test system: HCC-2998 colon
# SF-295 CNS = test system: SF-295 CNS
# KM12 colon = test system: KM12 colon
# SW-620 colon = test system: SW-620 colon
# NCI/ADR-RES ovarian = test system: NCI/ADR-RES ovarian
# CAKI-1 renal = test system: CAKI-1 renal
# HOP-62 NSCLC = test system: HOP-62 NSCLC
# SN12C renal = test system: SN12C renal
# MDA-MB-231 breast = test system: MDA-MB-231 breast
# PC-3 prostate = test system: PC-3 prostate
# MOLT-4 leukemia = test system: MOLT-4 leukemia
# NCI-H23 lung = test system: NCI-H23 lung
# UACC-257 melanoma = test system: UACC-257 melanoma
# U251 CNS = test system: U251 CNS
# SK-MEL-2 melanoma = test system: SK-MEL-2 melanoma
# HCT-15 colon = test system: HCT-15 colon
# RPMI-8226 leukemia = test system: RPMI-8226 leukemia
# SR leukemia = test system: SR leukemia
# UACC-62 melanoma = test system: UACC-62 melanoma
# HT29 colon = test system: HT29 colon
# HL-60(TB) leukemia = test system: HL-60(TB) leukemia
# DU-145 prostate = test system: DU-145 prostate
# CCRF-CEM leukemia = test system: CCRF-CEM leukemia
# HS 578T breast = test system: HS 578T breast
smiles,measurement,setting,value
CC(=O)Nc1ccc2cc(C#N)c(=O)[nH]c2n1,TGI,M14 melanoma,> 100 µM
same,TGI,K-562 leukemia,> 100 µM
same,TGI,BT-549 breast,> 100 µM
same,TGI,NCI-H522 lung,> 100 µM
same,TGI,MCF7 breast,> 100 µM
same,TGI,UO-31 renal,> 100 µM
same,TGI,NCI-H226 lung,> 100 µM
same,TGI,OVCAR-5 ovarian,> 100 µM
same,TGI,RXF 393 renal,> 100 µM
same,TGI,SF-268 CNS,> 100 µM
same,TGI,SK-MEL-5 melanoma,> 100 µM
same,TGI,LOX IMVI melanoma,> 100 µM
same,TGI,A549 NSCLC,> 100 µM
same,TGI,SNB-19 CNS,> 100 µM
same,TGI,OVCAR-4 ovarian,> 100 µM
same,TGI,NCI-H460 lung,> 100 µM
same,TGI,IGROV1 ovarian,> 100 µM
same,TGI,SF-539 CNS,> 100 µM
same,TGI,A498 renal,> 100 µM
same,TGI,T-47D breast,> 100 µM
same,TGI,HOP-92 NSCLC,> 100 µM
same,TGI,EKVX NSCLC,> 100 µM
same,TGI,MDA-N,> 100 µM
same,TGI,MDA-MB-435,> 100 µM
same,TGI,SK-OV-3 ovarian,> 100 µM
same,TGI,786-0 renal,> 100 µM
same,TGI,TK-10 renal,> 100 µM
same,TGI,ACHN renal,> 100 µM
same,TGI,HCT-116 colon,> 100 µM
same,TGI,COLO 205 colon,> 100 µM
same,TGI,OVCAR-3 ovarian,> 100 µM
same,TGI,SK-MEL-28 melanoma,> 100 µM
same,TGI,OVCAR-8 ovarian,> 100 µM
same,TGI,SNB-75 CNS,> 100 µM
same,TGI,MALME-3M melanoma,> 100 µM
same,TGI,HCC-2998 colon,> 100 µM
same,TGI,SF-295 CNS,> 100 µM
same,TGI,KM12 colon,> 100 µM
same,TGI,SW-620 colon,> 100 µM
same,TGI,NCI/ADR-RES ovarian,> 100 µM
same,TGI,CAKI-1 renal,> 100 µM
same,TGI,HOP-62 NSCLC,> 100 µM
same,TGI,SN12C renal,> 100 µM
same,TGI,MDA-MB-231 breast,> 100 µM
same,TGI,PC-3 prostate,> 100 µM
same,TGI,MOLT-4 leukemia,> 100 µM
same,TGI,NCI-H23 lung,> 100 µM
same,TGI,UACC-257 melanoma,> 100 µM
same,TGI,U251 CNS,> 100 µM
same,TGI,SK-MEL-2 melanoma,> 100 µM
same,TGI,HCT-15 colon,> 100 µM
same,TGI,RPMI-8226 leukemia,> 100 µM
C#CC(O)/C=C/C(O)CCCC(O)CC#CC(O)C#CCCCCC(O)/C=C/CCCCCC(=O)CCCCCCCCCCCCCC(O)C(O)C#CC(=O)O (stereo not given),TGI,M14 melanoma,> 25 µM
same,TGI,SR leukemia,19.1 µM
same,TGI,K-562 leukemia,> 25 µM
same,TGI,NCI-H522 lung,9.83 µM
same,TGI,MCF7 breast,> 25 µM
same,TGI,UO-31 renal,> 25 µM
same,TGI,NCI-H226 lung,> 25 µM
same,TGI,OVCAR-5 ovarian,> 25 µM
same,TGI,SF-268 CNS,> 25 µM
same,TGI,SK-MEL-5 melanoma,> 25 µM
same,TGI,LOX IMVI melanoma,9.88 µM
same,TGI,A549 NSCLC,> 25 µM
same,TGI,SNB-19 CNS,> 25 µM
same,TGI,OVCAR-4 ovarian,> 25 µM
same,TGI,NCI-H460 lung,> 25 µM
same,TGI,UACC-62 melanoma,> 25 µM
same,TGI,IGROV1 ovarian,9.59 µM
same,TGI,A498 renal,> 25 µM
same,TGI,T-47D breast,> 25 µM
same,TGI,HT29 colon,> 25 µM
same,TGI,HOP-92 NSCLC,> 25 µM
same,TGI,HL-60(TB) leukemia,> 25 µM
same,TGI,EKVX NSCLC,> 25 µM
same,TGI,DU-145 prostate,> 25 µM
same,TGI,MDA-N,> 25 µM
same,TGI,CCRF-CEM leukemia,> 25 µM
same,TGI,MDA-MB-435,> 25 µM
same,TGI,SK-OV-3 ovarian,> 25 µM
same,TGI,786-0 renal,> 25 µM
same,TGI,TK-10 renal,> 25 µM
same,TGI,ACHN renal,> 25 µM
same,TGI,HCT-116 colon,> 25 µM
same,TGI,COLO 205 colon,> 25 µM
same,TGI,SK-MEL-28 melanoma,> 25 µM
same,TGI,OVCAR-8 ovarian,> 25 µM
same,TGI,SNB-75 CNS,> 25 µM
same,TGI,MALME-3M melanoma,> 25 µM
same,TGI,HCC-2998 colon,> 25 µM
same,TGI,HS 578T breast,> 25 µM
same,TGI,SF-295 CNS,> 25 µM
same,TGI,KM12 colon,> 25 µM
same,TGI,NCI/ADR-RES ovarian,> 25 µM
same,TGI,CAKI-1 renal,> 25 µM
same,TGI,HOP-62 NSCLC,> 25 µM
same,TGI,SN12C renal,> 25 µM
same,TGI,MDA-MB-231 breast,> 25 µM
same,TGI,PC-3 prostate,> 25 µM
same,TGI,MOLT-4 leukemia,> 25 µM
same,TGI,NCI-H23 lung,> 25 µM
same,TGI,UACC-257 melanoma,> 25 µM
same,TGI,U251 CNS,> 25 µM
same,TGI,SK-MEL-2 melanoma,> 25 µM
same,TGI,HCT-15 colon,> 25 µM
same,TGI,RPMI-8226 leukemia,> 25 µM
C=C1C(=O)O[C@H]2C(=O)[C@H](C)CCC/C(C)=C/CC[C@@]3(C)O[C@@H]3C[C@@H]12,TGI,M14 melanoma,3.28 µM
same,TGI,SR leukemia,10.5 µM
same,TGI,K-562 leukemia,10.2 µM
same,TGI,NCI-H522 lung,4.06 µM
same,TGI,MCF7 breast,15 µM
same,TGI,UO-31 renal,3.18 µM
same,TGI,NCI-H226 lung,33.3 µM
same,TGI,OVCAR-5 ovarian,18.9 µM
same,TGI,SF-268 CNS,16.4 µM
same,TGI,SK-MEL-5 melanoma,20.7 µM
same,TGI,LOX IMVI melanoma,3.03 µM
same,TGI,A549 NSCLC,21.4 µM
same,TGI,SNB-19 CNS,24.1 µM
same,TGI,NCI-H460 lung,30.8 µM
same,TGI,UACC-62 melanoma,16.8 µM
same,TGI,IGROV1 ovarian,10.2 µM
same,TGI,SF-539 CNS,6.63 µM
same,TGI,A498 renal,32.8 µM
same,TGI,T-47D breast,4.35 µM
same,TGI,HT29 colon,10.6 µM
same,TGI,HOP-92 NSCLC,2.99 µM
same,TGI,HL-60(TB) leukemia,6.8 µM
same,TGI,DU-145 prostate,11.1 µM
same,TGI,MDA-N,11.5 µM
same,TGI,CCRF-CEM leukemia,4.18 µM
same,TGI,MDA-MB-435,5.82 µM
same,TGI,SK-OV-3 ovarian,30.3 µM
same,TGI,786-0 renal,3.02 µM
same,TGI,TK-10 renal,1.65 µM
same,TGI,ACHN renal,2.63 µM
same,TGI,HCT-116 colon,2.26 µM
same,TGI,COLO 205 colon,3.54 µM
same,TGI,OVCAR-3 ovarian,3.52 µM
same,TGI,OVCAR-8 ovarian,3.59 µM
same,TGI,HS 578T breast,28.4 µM
same,TGI,SF-295 CNS,27.3 µM
same,TGI,KM12 colon,22.3 µM
same,TGI,SW-620 colon,3.54 µM
same,TGI,NCI/ADR-RES ovarian,40.5 µM
same,TGI,CAKI-1 renal,3.23 µM
same,TGI,HOP-62 NSCLC,24.3 µM
same,TGI,SN12C renal,18.3 µM
same,TGI,MDA-MB-231 breast,23.3 µM
same,TGI,PC-3 prostate,21.2 µM
same,TGI,MOLT-4 leukemia,4.72 µM
same,TGI,NCI-H23 lung,29.3 µM
same,TGI,UACC-257 melanoma,11.7 µM
same,TGI,U251 CNS,13.3 µM
same,TGI,SK-MEL-2 melanoma,20.9 µM
same,TGI,HCT-15 colon,3.12 µM
same,TGI,RPMI-8226 leukemia,4.79 µM
CC1(C)COC(c2cccc(C(O)c3ccc(Cl)cc3)c2)=N1 (stereo not given),TGI,M14 melanoma,45.1 µM
same,TGI,SR leukemia,> 100 µM
same,TGI,K-562 leukemia,> 100 µM
same,TGI,NCI-H522 lung,> 100 µM
same,TGI,MCF7 breast,39.6 µM
same,TGI,UO-31 renal,46.7 µM
same,TGI,NCI-H226 lung,33.5 µM
same,TGI,OVCAR-5 ovarian,45.5 µM
same,TGI,RXF 393 renal,37.8 µM
same,TGI,SF-268 CNS,87.3 µM
same,TGI,SK-MEL-5 melanoma,28.6 µM
same,TGI,LOX IMVI melanoma,29.1 µM
same,TGI,SNB-19 CNS,> 100 µM
same,TGI,OVCAR-4 ovarian,> 100 µM
same,TGI,NCI-H460 lung,> 100 µM
same,TGI,UACC-62 melanoma,44.9 µM
same,TGI,IGROV1 ovarian,> 100 µM
same,TGI,SF-539 CNS,42.5 µM
same,TGI,T-47D breast,73.9 µM
same,TGI,HT29 colon,37.2 µM
same,TGI,HOP-92 NSCLC,59 µM
same,TGI,HL-60(TB) leukemia,> 100 µM
same,TGI,EKVX NSCLC,> 100 µM
same,TGI,DU-145 prostate,> 100 µM
same,TGI,MDA-N,70 µM
same,TGI,CCRF-CEM leukemia,> 100 µM
same,TGI,MDA-MB-435,67.3 µM
same,TGI,SK-OV-3 ovarian,65.1 µM
same,TGI,786-0 renal,59.8 µM
same,TGI,TK-10 renal,76.3 µM
same,TGI,ACHN renal,> 100 µM
same,TGI,HCT-116 colon,37.9 µM
same,TGI,COLO 205 colon,34 µM
same,TGI,OVCAR-3 ovarian,45.7 µM
same,TGI,SK-MEL-28 melanoma,> 100 µM
same,TGI,OVCAR-8 ovarian,42.3 µM
same,TGI,SNB-75 CNS,60.5 µM
same,TGI,MALME-3M melanoma,59.9 µM
same,TGI,HCC-2998 colon,64.7 µM
same,TGI,HS 578T breast,> 100 µM
same,TGI,KM12 colon,> 100 µM
same,TGI,SW-620 colon,> 100 µM
same,TGI,NCI/ADR-RES ovarian,77.2 µM
same,TGI,CAKI-1 renal,87.1 µM
same,TGI,HOP-62 NSCLC,88.6 µM
same,TGI,SN12C renal,73.9 µM
same,TGI,MDA-MB-231 breast,> 100 µM
same,TGI,PC-3 prostate,53.8 µM
same,TGI,MOLT-4 leukemia,59.3 µM
same,TGI,NCI-H23 lung,64.1 µM
same,TGI,U251 CNS,59.6 µM
same,TGI,SK-MEL-2 melanoma,47.5 µM
same,TGI,RPMI-8226 leukemia,89.1 µM
